# Experimental data taken from ChEMBL document CHEMBL1136479, “DAPI derivative: a fluorescent DNA dye that can be covalently attached to biomolecules” (Bioorg Med Chem Lett, 2003).
# Values joined by “and” are separate entries in the source; they are usually repeats but may differ in a detail not shown here. Identical values can stand only once.
# Experiments:
# [1] = The background fluorescence was measured in TE buffer in the presence of calf thymus DNA (4 ug/mL) at a molar ratio of 1000:1 (Compound:DNA)
# [2] = The background fluorescence was measured in TE buffer in the presence of calf thymus DNA (4 ug/mL) at a molar ratio of 2000:1 (Compound:DNA)
# [3] = The background fluorescence was measured in TE buffer in the presence of calf thymus DNA (4 ug/mL) at a molar ratio of 4000:1 (Compound:DNA)
# [4] = The background fluorescence was measured in TE buffer in the presence of calf thymus DNA (4 ug/mL) at a molar ratio of 8000:1 (Compound:DNA)
# [5] = The background fluorescence was measured in TE buffer in the absence of DNA
# [6] = Enhancement in fluorescence intensity was calculated as fluorescence intensity in presence of DNA/fluorescence intensity in absence of DNA
Fluorescence intensity [1],Fluorescence intensity [2],Fluorescence intensity [3],Fluorescence intensity [4],Fluorescence intensity [5],Enhancement [6],Structure (SMILES)
179,214,236,295,–,–,N=C(N)c1ccc(-c2cc3ccc(C(=N)N)cc3[nH]2)cc1
–,75,94.8,86.7,25.3 and 15.7 and 9.8,3.4 and 6 and 7.7,N=C(N)c1ccc(-c2[nH]c3cc(C(=N)N)ccc3c2Cc2cc([N+](=O)[O-])ccc2O)cc1
